Data: ChEMBL document CHEMBL4308841, “Synthesis, in vitro antiproliferative activity, and kinase inhibitory effects of pyrazole-containing diarylureas and diarylamides” (Eur J Med Chem, 2018)
pIC50: −log10 of the molar value.

Key:
K562 = assay: Growth inhibition of human K562 cells incubated for 48 hrs by sulforhodamine B assay; format: functional, cell-based; conditions: K562, 48 h
NCI-H522 = assay: Growth inhibition of human NCI-H522 cells incubated for 48 hrs by sulforhodamine B assay; format: functional, cell-based; conditions: NCI-H522, 48 h
COLO 205 = assay: Growth inhibition of human COLO205 cells incubated for 48 hrs by sulforhodamine B assay; format: functional, cell-based; conditions: COLO 205, 48 h
SF-268 [1] = assay: Growth inhibition of human SF268 cells incubated for 48 hrs by sulforhodamine B assay; format: functional, cell-based; conditions: SF-268, 48 h
UACC-62 [2] = assay: Growth inhibition of human UACC62 cells incubated for 48 hrs by sulforhodamine B assay; format: functional, cell-based; conditions: UACC-62, 48 h
OVCAR-4 [3] = assay: Growth inhibition of human OVCAR4 cells incubated for 48 hrs by sulforhodamine B assay; format: functional, cell-based; conditions: OVCAR-4, 48 h
OVCAR-5 [4] = assay: Growth inhibition of human OVCAR5 cells incubated for 48 hrs by sulforhodamine B assay; format: functional, cell-based; conditions: OVCAR-5, 48 h
CCRF-CEM [5] = assay: Growth inhibition of human CCRF-CEM cells assessed as cell growth at 0.01 uM incubated for 48 hrs by sulforhodamine B assay relative to control; format: functional; conditions: read-out: Activity
M14 = assay: Growth inhibition of human M14 cells assessed as cell growth at 0.01 uM incubated for 48 hrs by sulforhodamine B assay relative to control; format: functional; conditions: M14, 48 h, read-out: Activity
UACC-62 [6] = assay: Growth inhibition of human UACC62 cells assessed as cell growth at 0.01 uM incubated for 48 hrs by sulforhodamine B assay relative to control; format: functional; conditions: UACC-62, 48 h, read-out: Activity
PC-3 = assay: Growth inhibition of human PC3 cells assessed as cell growth at 0.01 uM incubated for 48 hrs by sulforhodamine B assay relative to control; format: functional; conditions: PC-3, 48 h, read-out: Activity
BT-549 = assay: Growth inhibition of human BT549 cells assessed as cell growth at 0.01 uM incubated for 48 hrs by sulforhodamine B assay relative to control; format: functional; conditions: BT-549, 48 h, read-out: Activity
RPMI-8226 = assay: Growth inhibition of human RPMI8226 cells assessed as cell growth at 0.1 uM incubated for 48 hrs by sulforhodamine B assay relative to control; format: functional; conditions: RPMI-8226, 48 h, read-out: Activity
U-251 [7] = assay: Growth inhibition of human U251 cells assessed as cell growth at 0.1 uM incubated for 48 hrs by sulforhodamine B assay relative to control; format: functional; conditions: U-251, 48 h, read-out: Activity
LOX IMVI = assay: Growth inhibition of human LOXIMVI cells assessed as cell growth at 0.1 uM incubated for 48 hrs by sulforhodamine B assay relative to control; format: functional; conditions: read-out: Activity
Malme-3M = assay: Growth inhibition of human MALME-3M cells assessed as cell growth at 0.1 uM incubated for 48 hrs by sulforhodamine B assay relative to control; format: functional; conditions: read-out: Activity
SK-MEL-2 = assay: Growth inhibition of human SK-MEL-2 cells assessed as cell growth at 0.1 uM incubated for 48 hrs by sulforhodamine B assay relative to control; format: functional; conditions: SK-MEL-2, 48 h, read-out: Activity
OVCAR-4 [8] = assay: Growth inhibition of human OVCAR4 cells assessed as cell growth at 0.1 uM incubated for 48 hrs by sulforhodamine B assay relative to control; format: functional; conditions: OVCAR-4, 48 h, read-out: Activity
KM12 = assay: Growth inhibition of human KM12 cells assessed as cell growth at 1 uM incubated for 48 hrs by sulforhodamine B assay relative to control; format: functional; conditions: KM12, 48 h, read-out: Activity
IGROV-1 = assay: Growth inhibition of human IGROV1 cells assessed as cell growth at 1 uM incubated for 48 hrs by sulforhodamine B assay relative to control; format: functional; conditions: IGROV-1, 48 h, read-out: Activity
OVCAR-8 = assay: Growth inhibition of human OVCAR8 cells assessed as cell growth at 1 uM incubated for 48 hrs by sulforhodamine B assay relative to control; format: functional; conditions: OVCAR-8, 48 h, read-out: Activity
CCRF-CEM [9] = assay: Growth inhibition of human CCRF-CEM cells assessed as cell growth at 100 uM incubated for 48 hrs by sulforhodamine B assay relative to control; format: functional; conditions: read-out: Activity
HCT-116 = assay: Growth inhibition of human HCT116 cells assessed as cell growth at 100 uM incubated for 48 hrs by sulforhodamine B assay relative to control; format: functional; conditions: HCT-116, 48 h, read-out: Activity
SF-268 [10] = assay: Growth inhibition of human SF268 cells assessed as cell growth at 100 uM incubated for 48 hrs by sulforhodamine B assay relative to control; format: functional; conditions: SF-268, 48 h, read-out: Activity
SNB-19 = assay: Growth inhibition of human SNB19 cells assessed as cell growth at 100 uM incubated for 48 hrs by sulforhodamine B assay relative to control; format: functional; conditions: SNB-19, 48 h, read-out: Activity
U-251 [11] = assay: Growth inhibition of human U251 cells assessed as cell growth at 100 uM incubated for 48 hrs by sulforhodamine B assay relative to control; format: functional; conditions: U-251, 48 h, read-out: Activity
SK-MEL-28 = assay: Growth inhibition of human SK-MEL-28 cells assessed as cell growth at 100 uM incubated for 48 hrs by sulforhodamine B assay relative to control; format: functional; conditions: SK-MEL-28, 48 h, read-out: Activity
UACC-62 [12] = assay: Growth inhibition of human UACC62 cells assessed as cell growth at 100 uM incubated for 48 hrs by sulforhodamine B assay relative to control; format: functional; conditions: UACC-62, 48 h, read-out: Activity
OVCAR-5 [13] = assay: Growth inhibition of human OVCAR5 cells assessed as cell growth at 100 uM incubated for 48 hrs by sulforhodamine B assay relative to control; format: functional; conditions: OVCAR-5, 48 h, read-out: Activity
[14] = read-out: LC50 (the source's name)
[15] = read-out: pLC50 (the source's name) (converted)

## O=C(Nc1cccc(-n2cc(-c3ccncc3)c(-c3cc(O)cc(Cl)c3)n2)c1)Nc1ccc(Cl)c(C(F)(F)F)c1
K562; read-out: GI50
  GI50: 2.59 µM
K562; read-out: LC50
  LC50: > 100 µM
K562; read-out: TGI
  TGI: 11 µM
K562; read-out: pGI50 (converted)
  GI50: 2.57 µM
K562; read-out: pLC50 (converted)
  LC50: > 100 µM
K562; read-out: pTGI (converted)
  TGI: 12 µM
NCI-H522; read-out: GI50
  GI50: 1.32 µM
NCI-H522; [14]
  CC50: 19 µM
NCI-H522; read-out: TGI
  TGI: 44.8 µM
NCI-H522; read-out: pGI50 (converted)
  GI50: 1.32 µM
NCI-H522; [15]
  CC50: 19.1 µM
NCI-H522; read-out: pTGI (converted)
  TGI: 4.47 µM
COLO 205; read-out: GI50
  GI50: 2.25 µM
COLO 205; [14]
  CC50: 15.9 µM
COLO 205; read-out: TGI
  TGI: 51.7 µM
COLO 205; read-out: pGI50 (converted)
  GI50: 2.82 µM
COLO 205; [15]
  CC50: 19.1 µM
COLO 205; read-out: pTGI (converted)
  TGI: 5.13 µM
SF-268 [1]; read-out: GI50
  GI50: 3.1 µM
SF-268 [1]; [14]
  CC50: > 100 µM
SF-268 [1]; read-out: TGI
  TGI: 18 µM
SF-268 [1]; read-out: pGI50 (converted)
  GI50: 3.09 µM
SF-268 [1]; [15]
  CC50: > 100 µM
SF-268 [1]; read-out: pTGI (converted)
  TGI: 15.8 µM
UACC-62 [2]
  pIC50: 5.68
UACC-62 [2]; read-out: GI50
  GI50: 2 µM
UACC-62 [2]; [14]
  CC50: 91.9 µM
UACC-62 [2]; read-out: TGI
  TGI: 43.8 µM
UACC-62 [2]; read-out: pGI50 (converted)
  GI50: 2.09 µM
UACC-62 [2]; [15]
  CC50: 9.12 µM
UACC-62 [2]; read-out: pTGI (converted)
  TGI: 4.37 µM
OVCAR-4 [3]; read-out: GI50
  GI50: 3.21 µM
OVCAR-4 [3]; [14]
  CC50: > 100 µM
OVCAR-4 [3]; read-out: TGI
  TGI: 92.3 µM
OVCAR-4 [3]; read-out: pGI50 (converted)
  GI50: 3.24 µM
OVCAR-4 [3]; [15]
  CC50: > 100 µM
OVCAR-4 [3]; read-out: pTGI (converted)
  TGI: 9.33 µM
OVCAR-5 [4]; read-out: GI50
  GI50: 3.79 µM
OVCAR-5 [4]; [14]
  CC50: 54.1 µM
OVCAR-5 [4]; read-out: TGI
  TGI: 13.1 µM
OVCAR-5 [4]; read-out: pGI50 (converted)
  GI50: 3.8 µM
OVCAR-5 [4]; [15]
  CC50: 83.2 µM
OVCAR-5 [4]; read-out: pTGI (converted)
  TGI: 13.2 µM
CCRF-CEM [5]
  growth at 0.01 µM: 97%
M14
  growth at 0.01 µM: 97%
UACC-62 [6]
  growth at 0.01 µM: 104%
PC-3
  growth at 0.01 µM: 95%
BT-549
  growth at 0.01 µM: 102%
RPMI-8226
  growth at 0.1 µM: 101%
U-251 [7]
  growth at 0.1 µM: 91%
LOX IMVI
  growth at 0.1 µM: 95%
Malme-3M
  growth at 0.1 µM: 81%
SK-MEL-2
  growth at 0.1 µM: 94%
OVCAR-4 [8]
  growth at 0.1 µM: 105%
KM12
  growth at 1 µM: 56%
IGROV-1
  growth at 1 µM: 113%
OVCAR-8
  growth at 1 µM: 99%
CCRF-CEM [9]
  growth at 100 µM: -3%
HCT-116
  growth at 100 µM: -57%
SF-268 [10]
  growth at 100 µM: -27%
SNB-19
  growth at 100 µM: -33%
U-251 [11]
  growth at 100 µM: -84%
SK-MEL-28
  growth at 100 µM: -89%
UACC-62 [12]
  growth at 100 µM: -85%
OVCAR-5 [13]
  growth at 100 µM: -55%
